Data published in article PMC8224038, “Anti-Leukemic Properties of Aplysinopsin Derivative EE-84 Alone and Combined to BH3 Mimetic A-1210477” (Marine Drugs, 2021).

How the values were obtained:
[1] = test system: K562IR cells; test: Seahorse XFp Glycolysis Stress test (ECAR); type: cell-based, human; settings: EE-84 100 μM, 72 h
Experimental: (§1) The oxygen consumption rate (OCR) was measured using a Seahorse XFp Cell Mito Stress Assay (#103010-100, Agilent Technologies, Seoul, Korea) ran on a Seahorse XFp analyzer (Agilent Technologies, Seoul, Korea) according to the manufacturer’s instructions. […] Before measurements, plates were equilibrated in a CO2-free incubator at 37 °C for 1 h. The analysis was performed using 1.5 µM oligomycin, 0.5 µM carbonyl cyanide-4-(trifluoromethoxy)phenylhydrazone (FCCP), and 1 µM rotenone/antimycin A as indicated. Data were analyzed using the Seahorse XF Cell Mito Stress Test report generator software (Agilent). The extracellular acidification rate (ECAR) was measured in response to the sequential injection of 10 mM glucose, 2 µM oligomycin (H+-ATP-synthase inhibitor), and 50 mM 2-deoxy-d-glucose (2DG) (hexokinase inhibitor) to detect non-glycolytic acidification, glycolysis, maximal glycolytic capacity, and glycolytic reserve using a Seahorse XFp analyzer with a Glycolysis Stress Test kit (Agilent, Santa Clara, CA, USA).

[2] = test system: K562; test: Seahorse XFp Glycolysis Stress test (ECAR); type: cell-based, human; settings: K562, EE-84 50 μM, 72 h, vs control
Experimental: as §1

[3] = test system: zebrafish embryos; test: Zebrafish toxicity; settings: 24 h exposure
Experimental: For toxicity assays, embryos were treated with 0.003% phenylthiourea (PTU) 14 h before the assay to remove pigmentation. Then, 2 h before the assay, the embryo’s shell was eliminated and then treated for up to 24 h with aplysinopsin compounds at indicated concentrations in 24-well plates. Viability and abnormal development were assessed after 24 h of treatment under light microscopy (Carl Zeiss Stereomicroscope DV4, Seoul, Korea). Pictures were taken by fixing embryos onto a glass slide with 3% methylcellulose (Sigma-Aldrich).

[4] = test system: KBM5; test: Trypan blue exclusion test, proliferation (GI50); type: cell-based; settings: Homo sapiens
Experimental: (§2) Cell proliferation and viability were assessed by the trypan blue exclusion method (Lonza), and viable cells were counted using a hematocytometer (Marienfeld, Lauda-Königshofen, Germany). Differential toxicity was calculated by comparing the viability of RPMI 1788 cells to the viability of cancer cells (normal/cancer cells). The difference in viability was expressed in terms of fold change.

[5] = test system: MEG01; test: Trypan blue exclusion test, proliferation (GI50); type: cell-based; settings: Homo sapiens, MEG-01
Experimental: as §2

[6] = test system: KBM5IR; test: Trypan blue exclusion test, proliferation (GI50); type: cell-based
Experimental: as §2

[7] = test system: K562IR; test: Trypan blue exclusion test, proliferation (GI50); type: cell-based; settings: Homo sapiens
Experimental: as §2

SMILES: COc1ccc2c(c1)c(C(=O)C(=O)Nc1sc3c(c1C(C)=O)CC(C)CC3)cn2Cc1ccccc1 (stereo not drawn) [EE-84, N-(3-Acetyl-4,5,6,7-Tetrahydro-5-Methylbenzo[b]Thiophen-2-yl)-2-(1-Benzyl-5-Methoxy-1H-Indol-3-yl)-2-Oxoacetamide]
- glycolytic capacity of ECAR [1]: significantly decreased
- glycolysis and glycolytic capacity (ECAR) [2]: significantly decreased
- heart rate of zebrafish [3]: moderate decrease
- growth (relative body length) of zebrafish ([3]; concentrations up to 100 µM): did not affect
- survival rate of zebrafish ([3]; concentrations up to 100 µM): did not affect
- morphological changes of zebrafish ([3]; embryos 24 hpf, different concentrations): No significant morphological changes
- GI50 ([4]; KBM5, 24 h): > 50 µM
- GI50 ([4]; KBM5, 48 h): 34 ± 1.89 µM
- GI50 ([4]; KBM5, 72 h): 28.1 ± 1.68 µM
- GI50 ([5]; MEG01, 24 h): > 50 µM
- GI50 ([5]; MEG01, 48 h): 48.4 ± 5.02 µM
- GI50 ([5]; MEG01, 72 h): 28.9 ± 1.52 µM
- GI50 ([6]; 24 h): > 100 µM
- GI50 ([6]; 48 h): 32.8 ± 2.25 µM
- GI50 ([6]; 72 h): 29.2 ± 2.05 µM
- GI50 ([7]; 24 h): > 100 µM
- GI50 ([7]; 48 h): 95.6 ± 16.6 µM
- GI50 ([7]; 72 h): 55.1 ± 3.28 µM
